According to patent US20060276455A1, “Use of a mast cell activation or degranulation blocking agent in the manufacture of a medicament for the treatment of cerebral ischemia” (priority 2003, published 2006):

Assays:
[1] = tested on: focal cerebral ischemia in rats (middle cerebral artery occlusion); test: Postischemic neutrophil response (Leder staining) after transient MCA occlusion; format: in vivo, rat; conditions: i.c.v. pretreatment, 4 h after MCAO, vs control
Text: We used the suture MCA occlusion model with reperfusion, described elsewhere. Briefly, we exposed the right common carotid artery (CCA) and the right external carotid artery (ECA) through a ventral midline neck incision. We ligated the proximal CCA and the origin of the ECA. We inserted a 4-0 nylon mono-filament suture (Ethilon Nylon Suture, ETHICON) with its tip rounded by heating near a flame and then coated with silicone into the right CCA via an arteriectomy. Reperfusion was accomplished by withdrawing the suture occluder 60 minutes after MCAO, whereafter the animals were allowed to recover. Four hours after MCAO, the rats were killed by injecting intraperitoneally 120 mg of pentobarbital natrium (Mebumat). Cardiac perfusion was performed with the heart still beating but respiration ceased by infusing 250 mL of ice cold 0.9% saline at an inflow pressure of 100 mmHg into the arterial vascular system. […] The densities of intravascular and emigrated neutrophils were counted without prior knowledge of animal grouping in systematically placed target areas, the temporoparietal infarction core, the parasagittal infarct penumbra and the deep thalamic and basal ganglia. In each area, 60 to 100 microscopic fields of 0.1 mm^2 were counted and averaged for each location. […]

[2] = tested on: cerebral hemorrhage in rats; test: Surgically induced cerebral hemorrhage (autologous blood injection), outcome at 24 h; conditions: i.c.v.
Experimental: In anesthesized rats, 2 craniotomies were performed for the introduction of drug infusion and blood. We injected 50 microliters of autologous arterial blood via stereotactically a Hamilton needle tip placed to the caudate putamen (6 mm from skull surface), a common location of spontaneous cerebral hemorrhages.
Animals were allowed to recover and 24 h later their level of neurological deterioration was rated on a 6-point scale: 5=dead, 4=stuporous, moribund, 3=hemiparetic with balance disturbance, 2=hemiparesis, 1=paresis of contralateral paw, 0=normal. The mortality was also recorded by 24 hours.

Compound: O=C(O)c1cc(=O)c2c(OCC(O)COc3cccc4oc(C(=O)O)cc(=O)c34)cccc2o1 [disodium cromoglycate]
- decrease of density of neutrophils in the infarcted hemisphere [1]: 37%
- six-point neurological score (0=normal, 5=dead), average ([2]; 24 h, saline-treated 3.2, p<0.01): 0.89
- mortality by 24 hours ([2]; saline-treated group 40%): 0%
